#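 Results reflect a 48-hour exposure of cells in 96-well plates to compound at five concentrations. Abbreviation: GI50, concentration required for 50% inhibition of growth.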 Calls of active or inactive are those of the source. No stated cut-off is given here; in the data, active = GI50 up to about 1.1 µM and inactive = higher.
# Key:
# Experiment in all cases: NCI-60 cell line screen, 48 h
# HOP-62 = system: HOP-62
# SNB-78 = system: SNB-78
# NCI-H226 = system: NCI-H226
# UACC-62 = system: UACC-62
# NCI-H23 = system: NCI-H23
# OVCAR-3 = system: OVCAR-3
# CAKI-1 = system: CAKI-1
# OVCAR-4 = system: OVCAR-4
# HL-60 = system: HL-60
# KM-20L2 = system: KM-20L2
# XF498 = system: XF498
# HOP-92 = system: HOP-92
# SF-295 = system: SF-295
# RXF 393 = system: RXF 393
# SK-MEL-28 = system: SK-MEL-28
# M14 = system: M14
# NCI-H460 = system: NCI-H460
# HOP-18 = system: HOP-18
# Malme-3M = system: Malme-3M
# U-251 = system: U-251
# OVCAR-5 = system: OVCAR-5
# DMS-114 = system: DMS-114
# DMS-273 = system: DMS-273
# HCT-15 = system: HCT-15
# SK-OV-3 = system: SK-OV-3
# HCC 2998 = system: HCC 2998
# ACHN = system: ACHN
# SR = system: SR
# NCI-H522 = system: NCI-H522
# SNB-19 = system: SNB-19
# DLD-1 = system: DLD-1
# SN12C = system: SN12C
# SF-268 = system: SF-268
# SK-MEL-2 = system: SK-MEL-2
# SF-539 = system: SF-539
# UACC-257 = system: UACC-257
# LXFL 529 = system: LXFL 529
# LOX IMVI = system: LOX IMVI
# K562 = system: K562
# MOLT-4 = system: MOLT-4
# UO-31 = system: UO-31
# EKVX = system: EKVX
# RPMI-8226 = system: RPMI-8226
# TK-10 = system: TK-10
# SW-620 = system: SW-620
# CCRF-CEM = system: CCRF-CEM
# 786-0 = system: 786-0
# OVCAR-8 = system: OVCAR-8
# KM12 = system: KM12
# SK-MEL-5 = system: SK-MEL-5
# A549 = system: A549
# A498 = system: A498
# IGROV-1 = system: IGROV-1
# HCT-116 = system: HCT-116
# M19-MEL = system: M19-MEL
# COLO 205 = system: COLO 205
# SNB-75 = system: SNB-75
# HT-29 = system: HT-29
compound,measurement,setting,value
N#Cc1c2ccccc2c(Cc2ccc3c(c2)OCCOCCOCCOCCOCCO3)c2ccccc12,GI50,HOP-62,10.3 µM (inactive)
same,GI50,SNB-78,9.14 µM (inactive)
same,GI50,NCI-H226,11.9 µM (inactive)
same,GI50,UACC-62,6.41 µM (inactive)
same,GI50,NCI-H23,11.4 µM (inactive)
same,GI50,OVCAR-3,4.23 µM (inactive)
same,GI50,CAKI-1,10.1 µM (inactive)
same,GI50,OVCAR-4,3 µM (inactive)
same,GI50,HL-60,1.85 µM (inactive)
same,GI50,KM-20L2,10 µM (inactive)
same,GI50,XF498,10.5 µM (inactive)
same,GI50,HOP-92,3.99 µM (inactive)
same,GI50,SF-295,8.69 µM (inactive)
same,GI50,RXF 393,2.32 µM (inactive)
same,GI50,SK-MEL-28,3.28 µM (inactive)
same,GI50,M14,5.37 µM (inactive)
same,GI50,NCI-H460,6.7 µM (inactive)
same,GI50,HOP-18,10.1 µM (inactive)
same,GI50,Malme-3M,6.44 µM (inactive)
same,GI50,U-251,9.44 µM (inactive)
same,GI50,OVCAR-5,16.4 µM (inactive)
same,GI50,DMS-114,10.4 µM (inactive)
same,GI50,DMS-273,4.68 µM (inactive)
same,GI50,HCT-15,5.57 µM
same,GI50,SK-OV-3,13.6 µM (inactive)
same,GI50,HCC 2998,11.8 µM (inactive)
same,GI50,ACHN,9.86 µM (inactive)
same,GI50,SR,24.5 µM (inactive)
same,GI50,NCI-H522,10.8 µM (inactive)
same,GI50,SNB-19,9.66 µM (inactive)
same,GI50,DLD-1,10.3 µM (inactive)
same,GI50,SN12C,10.1 µM (inactive)
same,GI50,SF-268,5.28 µM (inactive)
same,GI50,SK-MEL-2,6.34 µM (inactive)
same,GI50,SF-539,14.1 µM (inactive)
same,GI50,UACC-257,9.27 µM (inactive)
same,GI50,LXFL 529,5.46 µM (inactive)
same,GI50,LOX IMVI,6.04 µM (inactive)
same,GI50,K562,3.15 µM (inactive)
same,GI50,MOLT-4,2.82 µM (inactive)
same,GI50,UO-31,3.85 µM (inactive)
same,GI50,EKVX,16.3 µM (inactive)
same,GI50,RPMI-8226,3.11 µM (inactive)
same,GI50,TK-10,5.01 µM (inactive)
same,GI50,SW-620,6.71 µM (inactive)
same,GI50,CCRF-CEM,3.21 µM (inactive)
same,GI50,786-0,10.9 µM (inactive)
same,GI50,OVCAR-8,5.65 µM (inactive)
same,GI50,KM12,5.5 µM (inactive)
same,GI50,SK-MEL-5,4.35 µM (inactive)
same,GI50,A549,4.29 µM (inactive)
same,GI50,A498,13.3 µM (inactive)
same,GI50,IGROV-1,4.34 µM (inactive)
same,GI50,HCT-116,6.12 µM (inactive)
CCOC(=O)C(=O)Nc1c(C)cccc1C,GI50,HOP-62,> 100 µM (inactive)
same,GI50,SNB-78,> 100 µM (inactive)
same,GI50,M19-MEL,> 100 µM (inactive)
same,GI50,NCI-H226,> 100 µM (inactive)
same,GI50,UACC-62,> 100 µM (inactive)
same,GI50,NCI-H23,> 100 µM (inactive)
same,GI50,OVCAR-3,> 100 µM (inactive)
same,GI50,CAKI-1,> 100 µM (inactive)
same,GI50,OVCAR-4,> 100 µM (inactive)
same,GI50,KM-20L2,> 100 µM (inactive)
same,GI50,XF498,> 100 µM (inactive)
same,GI50,HOP-92,> 100 µM (inactive)
same,GI50,SF-295,> 100 µM (inactive)
same,GI50,RXF 393,> 100 µM (inactive)
same,GI50,SK-MEL-28,> 100 µM (inactive)
same,GI50,M14,> 100 µM (inactive)
same,GI50,NCI-H460,> 100 µM (inactive)
same,GI50,HOP-18,> 100 µM (inactive)
same,GI50,Malme-3M,> 100 µM (inactive)
same,GI50,U-251,> 100 µM (inactive)
same,GI50,OVCAR-5,> 100 µM (inactive)
same,GI50,DMS-114,> 100 µM (inactive)
same,GI50,DMS-273,> 100 µM (inactive)
same,GI50,HCT-15,> 100 µM
same,GI50,SK-OV-3,> 100 µM (inactive)
same,GI50,HCC 2998,> 100 µM (inactive)
same,GI50,ACHN,> 100 µM (inactive)
same,GI50,COLO 205,> 100 µM (inactive)
same,GI50,SNB-19,> 100 µM (inactive)
same,GI50,DLD-1,> 100 µM (inactive)
same,GI50,SN12C,> 100 µM (inactive)
same,GI50,SF-268,> 100 µM (inactive)
same,GI50,SK-MEL-2,> 100 µM (inactive)
same,GI50,SF-539,> 100 µM (inactive)
same,GI50,UACC-257,> 100 µM (inactive)
same,GI50,LXFL 529,> 100 µM (inactive)
same,GI50,LOX IMVI,> 100 µM (inactive)
same,GI50,UO-31,> 100 µM (inactive)
same,GI50,EKVX,> 100 µM (inactive)
same,GI50,RPMI-8226,> 100 µM (inactive)
same,GI50,TK-10,> 100 µM (inactive)
same,GI50,SW-620,> 100 µM (inactive)
same,GI50,SNB-75,> 100 µM (inactive)
same,GI50,786-0,> 100 µM (inactive)
same,GI50,OVCAR-8,> 100 µM (inactive)
same,GI50,KM12,> 100 µM (inactive)
same,GI50,A549,> 100 µM (inactive)
same,GI50,IGROV-1,> 100 µM (inactive)
same,GI50,HCT-116,> 100 µM (inactive)
same,GI50,HT-29,> 100 µM (inactive)
O=[N+]([O-])c1cccc(C2=NN(c3ccccc3)C[N+](c3ccc(Br)cc3)=N2)c1,GI50,HOP-62,> 100 µM (inactive)
same,GI50,SNB-78,34.4 µM (inactive)
same,GI50,M19-MEL,70.8 µM (inactive)
same,GI50,UACC-62,> 100 µM (inactive)
same,GI50,NCI-H23,> 100 µM (inactive)
same,GI50,CAKI-1,> 100 µM (inactive)
same,GI50,OVCAR-4,> 100 µM (inactive)
same,GI50,KM-20L2,> 100 µM (inactive)
same,GI50,XF498,> 100 µM (inactive)
same,GI50,HOP-92,83.2 µM (inactive)
same,GI50,SF-295,64.9 µM (inactive)
same,GI50,RXF 393,> 100 µM (inactive)
same,GI50,SK-MEL-28,> 100 µM (inactive)
same,GI50,M14,59 µM (inactive)
same,GI50,NCI-H460,> 100 µM (inactive)
same,GI50,HOP-18,43.7 µM (inactive)
same,GI50,Malme-3M,> 100 µM (inactive)
same,GI50,U-251,> 100 µM (inactive)
same,GI50,OVCAR-5,> 100 µM (inactive)
same,GI50,DMS-273,77.4 µM (inactive)
same,GI50,HCT-15,> 100 µM
same,GI50,SK-OV-3,> 100 µM (inactive)
same,GI50,HCC 2998,70.8 µM (inactive)
same,GI50,ACHN,93.5 µM (inactive)
same,GI50,SR,< 0.01 µM (active)
same,GI50,COLO 205,> 100 µM (inactive)
same,GI50,NCI-H522,77.1 µM (inactive)
same,GI50,SNB-19,> 100 µM (inactive)
same,GI50,DLD-1,96.8 µM (inactive)
same,GI50,SN12C,> 100 µM (inactive)
same,GI50,SF-268,> 100 µM (inactive)
same,GI50,SK-MEL-2,87.3 µM (inactive)
same,GI50,SF-539,> 100 µM (inactive)
same,GI50,UACC-257,> 100 µM (inactive)
same,GI50,LXFL 529,46.8 µM (inactive)
same,GI50,K562,50.2 µM (inactive)
same,GI50,MOLT-4,35.7 µM (inactive)
same,GI50,UO-31,96.4 µM (inactive)
same,GI50,EKVX,> 100 µM (inactive)
same,GI50,RPMI-8226,82 µM (inactive)
same,GI50,TK-10,> 100 µM (inactive)
same,GI50,SW-620,> 100 µM (inactive)
same,GI50,SNB-75,> 100 µM (inactive)
same,GI50,786-0,> 100 µM (inactive)
same,GI50,OVCAR-8,> 100 µM (inactive)
same,GI50,KM12,73.5 µM (inactive)
same,GI50,SK-MEL-5,> 100 µM (inactive)
same,GI50,A549,> 100 µM (inactive)
same,GI50,A498,> 100 µM (inactive)
same,GI50,IGROV-1,37.3 µM (inactive)
same,GI50,HCT-116,97.1 µM (inactive)
same,GI50,HT-29,47.4 µM (inactive)

# Source: ChEMBL document CHEMBL1201862, “PubChem BioAssay data set” (2004)
